Measurements from ChEMBL document CHEMBL1130359, “In vivo immunosuppressive activity of some cyclolignans” (Bioorg Med Chem Lett, 1997).
Converted amounts (≈) assume the structure as drawn.

Columns and labels:
Mus musculus [1] = assay: Tested in vivo for immunosuppressive activity in mouse using allogenic skin grafting technique(SG); weight at a dose of 0.15 mg/kg; type: functional
Mus musculus [2] = assay: Tested in vivo for immunosuppressive activity in mouse using graft vs. Host rejection technique(GVHR); weight at a dose of 15 mg/kg; type: functional
Mus musculus [3] = assay: Tested in vivo for immunosuppressive activity in mouse using allogenic skin grafting technique(SG); weight at a dose of 15 mg/kg; type: functional
Mus musculus [4] = assay: Tested in vivo for immunosuppressive activity in mouse using allogenic skin grafting technique(SG); mean graft survival at a dose of 1.5 mg/kg; type: functional
Mus musculus [5] = assay: Tested in vivo for immunosuppressive activity in mouse using allogenic skin grafting technique(SG); mean graft survival at a dose of 0.15 mg/kg; type: functional
Mus musculus [6] = assay: Tested in vivo for immunosuppressive activity in mouse using allogenic skin grafting technique(SG); weight at a dose of 1.50 mg/kg; type: functional; settings: dose 1.5 mg/kg
Mus musculus [7] = assay: Tested in vivo for immunosuppressive activity in mouse using graft vs. Host rejection technique(GVHR); % suppression at a dose of 15.0 mg/kg.; type: functional
Mus musculus [8] = assay: Tested in vivo for immunosuppressive activity in mouse using graft vs. Host rejection technique(GVHR); body weight at a dose of 1.5 mg/kg; type: functional
Mus musculus [9] = assay: Tested in vivo for immunosuppressive activity in mouse using graft vs. Host rejection technique(GVHR); spleen index at a dose of 15.0 mg/kg; type: functional
Mus musculus [10] = assay: Tested in vivo for immunosuppressive activity in mouse using graft vs. Host rejection technique(GVHR);% suppression at a dose of 0.15 mg/kg; type: functional
Mus musculus [11] = assay: Tested in vivo for immunosuppressive activity in mouse using graft vs. Host rejection technique(GVHR); body weight at a dose of 15.0 mg/kg; type: functional
Mus musculus [12] = assay: Tested in vivo for immunosuppressive activity in mouse using graft vs. Host rejection technique(GVHR); spleen weight normalized to D8 body weight at a dose of 1.5 mg/kg; type: functional
Mus musculus [13] = assay: Tested in vivo for immunosuppressive activity in mouse using allogenic skin grafting technique(SG); graft survival relative to cyclophosphamide at a dose of 0.15 mg/kg; type: functional
Mus musculus [14] = assay: Tested in vivo for immunosuppressive activity in mouse using allogenic skin grafting technique(SG); weight lost at a dose of 0.15 mg/kg; type: functional
Mus musculus [15] = assay: Tested in vivo for immunosuppressive activity in mouse using allogenic skin grafting technique(SG); graft survival relative to cyclophosphamide at a dose of 1.5 mg/kg; type: functional
Mus musculus [16] = assay: Tested in vivo for immunosuppressive activity in mouse using graft vs. Host rejection technique(GVHR); weight change at a dose of 0.15 mg/kg; type: functional
Mus musculus [17] = assay: Tested in vivo for immunosuppressive activity in mouse using graft vs. Host rejection technique(GVHR); weight change at a dose of 15.0 mg/kg; type: functional
Mus musculus [18] = assay: Tested in vivo for immunosuppressive activity in mouse using graft vs. Host rejection technique(GVHR); body weight at a dose of 0.15 mg/kg.; type: functional
Mus musculus [19] = species on record: Mus musculus; assay: Tested for immunosuppressive activity in mouse using allogenic MLR method; type: functional, organism-based
Mus musculus [20] = assay: Tested in vivo for immunosuppressive activity in mouse using graft vs. Host rejection technique(GVHR); spleen weight normalized to D8 body weight at a dose of 15.0 mg/kg; type: functional
[21] = Non-cytotoxic IMS activity (ratio LcV/MLR) was determined; type: functional
Mus musculus [22] = assay: Tested in vivo for immunosuppressive activity in mouse using graft vs. Host rejection technique(GVHR); spleen index at a dose of 1.5 mg/kg; type: functional
Mus musculus [23] = assay: Tested in vivo for immunosuppressive activity in mouse using allogenic skin grafting technique(SG); mean graft survival at a dose of 15.0 mg/kg.; type: functional
Mus musculus [24] = assay: Tested in vivo for immunosuppressive activity in mouse using graft vs. Host rejection technique(GVHR); weight change at a dose of 1.5 mg/kg.; type: functional
Mus musculus [25] = assay: Tested in vivo for immunosuppressive activity in mouse using allogenic skin grafting technique(SG); graft survival relative to cyclophosphamide at a dose of 15.0 mg/kg; type: functional
[26] = Tested in vitro for cytotoxicity against […](LcV) in cells; type: functional
Mus musculus [27] = assay: Tested in vivo for immunosuppressive activity in mouse using graft vs. Host rejection technique(GVHR); spleen weight normalized to D8 body weight at a dose of 0.15 mg/kg; type: functional
Mus musculus [28] = assay: Tested in vivo for immunosuppressive activity in mouse using graft vs. Host rejection technique(GVHR); spleen index at a dose of 0.15 mg/kg; type: functional
Mus musculus [29] = assay: Tested in vivo for immunosuppressive activity in mouse using allogenic skin grafting technique(SG); weight lost at a dose of 1.50 mg/kg; type: functional; settings: dose 1.5 mg/kg
Mus musculus [30] = assay: Tested in vivo for immunosuppressive activity in mouse using graft vs. Host rejection technique(GVHR); % suppression at a dose of 1.5 mg/kg; type: functional

`COc1cc([C@@H]2c3cc(O)c(O)cc3[C@H](O)[C@H]3COC(=O)[C@H]23)cc(OC)c1OC` [6,7-O,O-DEMETHYLENEPODOPHYLLOTOXIN] showed a Body weight (Mus musculus [1]) of 18.7 g, a Body weight (Mus musculus [2]) of 17.8 g and a Body weight (Mus musculus [3]) of 1.6 g. It also gave a Mean graft survival (Mus musculus [4]) of 12.5 days, a Mean graft survival (Mus musculus [5]) of 10 days and a Body weight (Mus musculus [6]) of 18.5 g. For the same compound, the Activity (Mus musculus [7]) was 44%, the Body weight (Mus musculus [8]) was 16.8 g and the SI (Mus musculus [9]) was 1.15. It also gave an Activity (Mus musculus [10]) of 167%, a Body weight (Mus musculus [11]) of 16.3 g and a Spleen weight (Mus musculus [12]) of 5.2 g. It also gave a graft survival (Mus musculus [13]) of 1.02 days, a Body weight (Mus musculus [14]) of 0.7 g and a graft survival (Mus musculus [15]) of 1.28 days. The Weight change (Mus musculus [16]) was -1.8%, the Weight change (Mus musculus [17]) was 1.8% and the Body weight (Mus musculus [18]) was 16.5 g. The IC50 (Mus musculus [19]) was 5.63 ng/mL (≈ 0.014 µM), the Spleen weight (Mus musculus [20]) was 5.75 g and the Ratio [21] was >4885. For the same compound, the SI (Mus musculus [22]) was 1.04, the Mean graft survival (Mus musculus [23]) was 10.7 days and the Weight change (Mus musculus [24]) was 2.9%. For the same compound, the graft survival (Mus musculus [25]) was 1.09 days, the Cytotoxicity [26] was >27.5 µg/mL and the Spleen weight (Mus musculus [27]) was 4.1 g. For the same compound, the SI (Mus musculus [28]) was 0.82, the Body weight (Mus musculus [29]) was 1 g and the Activity (Mus musculus [30]) was 85%.
